# According to US20060281768A1, “THIENOPYRIMIDINE AND THIENOPYRIDINE KINASE MODULATORS” (priority 2005, published 2006):
# Key:
# MV4-11 cells = assay: Growth inhibition of MV4-11 cells (CellTiterGlo); type: cell-based; conditions: Homo sapiens, 72 hours, uncertainty +20%
# Description: FLT3 specific growth inhibition was measured in the leukemic cell line MV4-11 (ATCC Number: CRL-9591). […] MV4-11 cells cannot grow and survive without active FLT31TD.
# To measure proliferation inhibition by test compounds the luciferase based CellTiterGlo reagent (Promega) was used. Cells are plated at 10,000 cells per well in 100ul of in RPMI media containing penn/strep, 10% FBS and lng/ml GM-CSF or 1 ng/ml IL-3 for MV4-11 and Baf3 cells respectively.
# Compound dilutions or 0.1% DMSO (vehicle control) are added to cells and the cells are allowed to grow for 72 hours at standard cell growth conditions (37° C., 5% CO2). Total cell growth is quantified as the difference in luminescent counts (relative light units, RLU) of cell number at Day 0 compared to total cell number at Day 3 (72 hours of growth and/or compound treatment). One hundred percent inhibition of growth is defined as an RLU equivalent to the Day 0 reading. Zero percent inhibition is defined as the RLU signal for the DMSO vehicle control at Day 3 of growth. All data points are an average of triplicate samples. […] Inhibition and IC50 data analysis was done with GraphPad Prism using a non-linear regression fit with a multiparamater, sigmoidal dose-response (variable slope) equation.
# MV-411 cells expressed the FLT3 internal tandem duplication mutation, and thus were entirely dependent upon FLT3 activity for growth. […] In contrast, the Baf3 cell proliferations is driven by the cytokine IL-3 and these cells are used as a non-specific toxicity control for test compounds.
# wild-type FLT3 receptor = biological target: T1, wild-type FLT3 receptor (Homo sapiens, UniProt P36888); assay: Cell-Based FLT3 Receptor Elisa (Baf3 FLT3 cells, FLT3 phosphorylation); conditions: Flt ligand stimulated FLT3 phosphorylation, 1 hour compound incubation, uncertainty +20%
# T1 construct: host or cells: Baf3 (murine B cell lymphoma line)
# T1 sequence (P36888 27-993): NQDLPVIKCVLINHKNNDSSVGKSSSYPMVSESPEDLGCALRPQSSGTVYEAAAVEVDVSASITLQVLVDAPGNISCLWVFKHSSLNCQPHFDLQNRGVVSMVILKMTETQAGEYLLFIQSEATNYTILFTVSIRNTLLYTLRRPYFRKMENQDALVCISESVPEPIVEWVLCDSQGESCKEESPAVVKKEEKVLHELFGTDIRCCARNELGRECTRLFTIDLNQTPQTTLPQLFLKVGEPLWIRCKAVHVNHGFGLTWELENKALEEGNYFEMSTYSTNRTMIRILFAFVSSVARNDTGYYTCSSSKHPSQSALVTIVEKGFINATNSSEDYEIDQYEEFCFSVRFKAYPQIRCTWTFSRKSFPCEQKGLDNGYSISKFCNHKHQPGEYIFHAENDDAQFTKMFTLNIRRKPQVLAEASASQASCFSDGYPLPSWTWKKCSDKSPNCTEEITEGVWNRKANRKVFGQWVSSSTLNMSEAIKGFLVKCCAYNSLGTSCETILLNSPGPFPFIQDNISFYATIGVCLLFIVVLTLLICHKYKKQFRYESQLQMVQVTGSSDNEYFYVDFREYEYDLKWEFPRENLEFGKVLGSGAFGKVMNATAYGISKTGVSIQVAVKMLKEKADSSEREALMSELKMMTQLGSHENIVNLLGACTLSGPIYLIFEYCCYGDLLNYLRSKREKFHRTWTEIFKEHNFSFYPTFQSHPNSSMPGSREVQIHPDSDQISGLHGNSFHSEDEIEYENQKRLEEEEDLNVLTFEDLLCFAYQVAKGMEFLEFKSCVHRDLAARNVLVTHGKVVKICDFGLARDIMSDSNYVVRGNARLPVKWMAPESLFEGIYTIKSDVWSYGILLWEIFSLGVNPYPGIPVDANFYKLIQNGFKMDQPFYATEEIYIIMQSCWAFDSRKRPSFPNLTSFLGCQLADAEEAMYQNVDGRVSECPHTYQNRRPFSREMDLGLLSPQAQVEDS
# Description: Cells overexpressing the FLT3 receptor were obtained from Dr. Michael Heinrich (Oregon Health and Sciences University). The Baf3 FLT3 cell lines were created by stable transfection of parental Baf3 cells (a murine B cell lymphoma line dependent on the cytokine IL-3 for growth) with wild-type FLT3. Cells were selected for their ability to grow in the absence of IL-3 and in the presence of FLT3 ligand.
# Baf3 cells were maintained in RPMI 1640 with 10%FCS, penn/strep and 10 ng/mL FLT ligand at 37° C., 5% CO2. To measure direct inhibition of the wild-type FLT3 receptor activity and phosphorylation a sandwich ELISA method was developed similar to those developed for other RTKs (3,4). 200ul of Baf3FLT3 cells (1×10^6/ml) were plated in 96 well dishes in RPM11640 with 0.5% serum and 0.01ng/ml IL-3 for 16 hours prior to 1 hour compound or DMSO vehicle incubation. Cells were treated with 100 ng/ml Flt ligand (R&D Systems Cat# 308-FK) for 10 min. at 37° C. Cells were pelleted, washed and lysed in 100ul HNTG buffer (50 mM Hepes, 150 mM NaCl, 10% Glycerol, 1% Triton -X-100, 10 mM NaF, 1 mM EDTA, 1.5 mM MgCl2, 10 mM NaPyrophosphate) supplemented with phosphatase (Sigma Cat# P2850) and protease inhibitors (Sigma Cat #P8340). Lysates were cleared by centrifugation at 1000×g for 5 minutes at 4° C. Cell lysates were transferred to white wall 96 well microtiter (Costar #9018) plates coated with 50ng/well anti-FLT3 antibody (Santa Cruz Cat# sc-480) and blocked with SeaBlock reagent (Pierce Cat#37527). Lysates were incubated at 4° C. for 2 hours. Plates were washed 3× with 200ul/well PBS/0.1% triton-X-100. Plates are then incubated with 1:8000 dilution of HRP-conjugated anti-phosphotyrosine antibody (Clone 4G10, Upstate Biotechnology Cat#16-105) for 1 hour at room temperature. Plates were washed 3× with 200ul/well PBS/0.1% triton-X-100. Signal detection with Super Signal Pico reagent (Pierce Cat#37070) was done according to manufacturer's instruction with a Berthold microplate luminometer. All data points are an average of triplicate samples. […] Inhibition and IC50 data analysis was done with GraphPad Prism using a non-linear regression fit with a multiparamater, sigmoidal dose-response (variable slope) equation.
# FLT3 571-993 = biological target: T2, FLT3 571-993 (Homo sapiens, UniProt P36888); assay: FLT3 Fluorescence Polarization Kinase Assay; type: biochemical; conditions: 10 nM FLT3 571-993, 150 uM ATP, 30 minutes; uncertainty +10%
# T2 construct: 10 nM FLT3 571-993, 20 ug/mL poly Glu4Tyr
# T2 sequence (P36888 571-993): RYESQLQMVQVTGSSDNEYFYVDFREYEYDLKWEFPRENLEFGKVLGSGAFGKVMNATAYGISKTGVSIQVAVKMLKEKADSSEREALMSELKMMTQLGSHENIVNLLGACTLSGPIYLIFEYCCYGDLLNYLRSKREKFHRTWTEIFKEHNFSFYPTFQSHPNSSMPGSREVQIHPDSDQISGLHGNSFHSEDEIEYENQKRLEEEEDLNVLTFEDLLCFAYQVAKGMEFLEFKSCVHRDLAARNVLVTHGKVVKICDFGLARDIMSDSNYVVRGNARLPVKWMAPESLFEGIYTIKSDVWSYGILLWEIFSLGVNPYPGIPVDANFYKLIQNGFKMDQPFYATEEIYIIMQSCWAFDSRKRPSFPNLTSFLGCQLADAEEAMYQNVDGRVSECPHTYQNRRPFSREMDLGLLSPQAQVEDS
# Description: The FLT3 FP assay utilizes the fluorescein-labeled phosphopeptide and the anti-phosphotyrosine antibody included in the Panvera Phospho-Tyrosine Kinase Kit (Green) supplied by Invitrogen. When FLT3 phosphorylates poly Glu4Tyr, the fluorescein-labeled phosphopeptide is displaced from the anti-phosphotyrosine antibody by the phosphorylated poly Glu4Tyr, thus decreasing the FP value. The FLT3 kinase reaction is incubated at room temperature for 30 minutes under the following conditions: 10 nM FLT3 571-993, 20 ug/mL poly Glu4Tyr, 150 uM ATP, 5mM MgCl2, 1% compound in DMSO. The kinase reaction is stopped with the addition of EDTA. The fluorescein-labeled phosphopeptide and the anti-phosphotyrosine antibody are added and incubated for 30 minutes at room temperature.
# All data points are an average of triplicate samples. Inhibition and IC50 data analysis was done with GraphPad Prism using a non-linear regression fit with a multiparamater, sigmoidal dose-response (variable slope) equation.
SMILES,IC50 (MV4-11 cells),IC50 (wild-type FLT3 receptor),IC50 (FLT3 571-993)
"O=C(Nc1ccc(Oc2ccccc2)cc1)NC1CCN(c2ncnc3ccsc23)C1 (stereo not drawn) [Compound 13, 1-(4-Phenoxy-phenyl)-3-(1-thieno [3,2-d]pyrimidin-4-yl-pyrrolidin-3-yl)-urea]",881 nM,> 5000 nM,–
"O=C(Nc1ccc(OC2CCC2)nc1)NC1CCN(c2ncnc3ccsc23)C1 (stereo not drawn) [Compound 15, 1-(6-Cyclobutoxy-pyridin-3-yl)-3-(1-thieno [3,2-d]pyrimidin-4-yl-pyrrolidin-3-yl)-urea]",983 nM,1900 nM,–
"O=C(Nc1ccc(OC2CCC2)nc1)OC1CCN(c2ncnc3ccsc23)C1 (stereo not drawn) [Compound 25, (6-Cyclobutoxy-pyridin-3-yl)-carbamic acid 1-thieno[3,2-d]pyrimidin-4-yl-pyrrolidin-3-yl ester]",345 nM,1600 nM,–
"O=C(Nc1ccc(Oc2ccccc2)cc1)OC1CCN(c2ncnc3ccsc23)C1 (stereo not drawn) [Compound 26, (4-Phenoxy-phenyl)-carbamic acid 1-thieno[3,2-d]pyrimidin-4-yl-pyrrolidin-3-yl ester]",953 nM,390 nM,–
"O=C(Nc1ccc(N2CCCC2)cc1)NC1CCN(c2ncnc3ccsc23)C1 (stereo not drawn) [Compound 19, 1-(4-Pyrrolidin-1-yl-phenyl)-3-(1-thieno [3,2-d]pyrimidin-4-yl-pyrrolidin-3-yl)-urea]",850 nM,2900 nM,–

# Results, then the molecule that gave them:
IC50 (MV4-11 cells),IC50 (wild-type FLT3 receptor),IC50 (FLT3 571-993),SMILES
1300 nM,22 nM,64 nM,"CC(C)c1ccc(NC(=O)OC2CCN(c3ncnc4ccsc34)C2)cc1 (stereo not drawn) [Compound 5, (4-Isopropyl-phenyl)-carbamic acid 1-thieno [3,2-d]pyrimidin-4-yl-pyrrolidin-3-yl ester]"
757 nM,895 nM,–,"CCN(CC)c1ccc(NC(=O)NC2CCN(c3ncnc4ccsc34)C2)cc1 (stereo not drawn) [Compound 18, 1-(4-Diethylamino-phenyl)-3-(1-thieno [3,2-d]pyrimidin-4-yl-pyrrolidin-3-yl)-urea]"
671 nM,108 nM,77 nM,"CC(C)c1ccc(NC(=O)NC2CCN(c3ncnc4ccsc34)C2)cc1 (stereo not drawn) [Compound 11, 1-(4-Isopropyl-phenyl)-3-(1-thieno [3,2-d]pyrimidin-4-yl-pyrrolidin-3-yl)-urea]"
1300 nM,55 nM,41 nM,"CC(C)c1ccc(NC(=O)NC2CCN(c3ncnc4sccc34)C2)cc1 (stereo not drawn) [Compound 9, 1-(4-Isopropyl-phenyl)-3-(1-thieno [2,3-d]pyrimidin-4-yl-pyrrolidin-3-yl)-urea]"
